Experimental data published in ChEMBL document CHEMBL4049460, “Trisubstituted Imidazoles with a Rigidized Hinge Binding Motif Act As Single Digit nM Inhibitors of Clinically Relevant EGFR L858R/T790M and L858R/T790M/C797S Mutants: An Example of Target Hopping” (J Med Chem, 2017).

Target: T1, Epidermal growth factor receptor (Homo sapiens, UniProt P00533, L858R/T790M)
Assay: Inhibition of recombinant human GST-tagged EGFR L858R/T790M double mutant cytoplasmic domain expressed in baculovirus expression system preincubated for 20 mins followed by addition of [33P]-ATP measured after 2 hrs by filter-binding method
Details: not given; call rule not given here

| SMILES | IC50 |
| --- | --- |
| Oc1ccc(-c2nc(-c3ccco3)c(-c3ccnc4[nH]c(-c5ccccc5)cc34)[nH]2)cc1 | 3310 nM |
| C=CC(=O)Nc1cccc(-c2cc3c(-c4[nH]c(-c5ccccc5)nc4-c4ccc(F)cc4)ccnc3[nH]2)c1 | 908 nM |
| Oc1cccc(-c2nc(-c3ccc(F)cc3)c(-c3ccnc4[nH]c(-c5ccccc5)cc34)[nH]2)c1 | 706 nM |
| C=CC(=O)NCc1cccc(-c2nc(C3CC3)c(-c3ccnc4[nH]c(-c5ccccc5)cc34)[nH]2)c1 | 11300 nM |
| C=CC(=O)Nc1cccc(-c2c[nH]c3nccc(-c4[nH]c(-c5ccccc5)nc4-c4ccc(F)cc4)c23)c1 | 112 nM |
| Fc1ccc(-c2[nH]c(-c3ccccc3)nc2-c2ccnc3[nH]c(-c4ccccc4)cc23)cc1 | 1450 nM |
| C=CC(=O)Nc1cccc(-c2c[nH]c3nccc(-c4[nH]c(CCCO)nc4C(F)(F)F)c23)c1 | 1880 nM |
| Oc1ccc(-c2nc(-c3ccccc3)c(-c3ccnc4[nH]c(-c5ccccc5)cc34)[nH]2)cc1 | 658 nM |
| CCC(=O)Nc1cccc(-c2cc3c(-c4[nH]c(-c5ccccc5)nc4-c4ccc(F)cc4)ccnc3[nH]2)c1 | 987 nM |
| C=CC(=O)Nc1cccc(-c2c[nH]c3nccc(Cl)c23)c1 | 67.9 nM |
| Nc1cccc(-c2cc3c(-c4[nH]c(-c5ccccc5)nc4-c4ccc(F)cc4)ccnc3[nH]2)c1 | 651 nM |

Target: T2, Epidermal growth factor receptor (Homo sapiens, UniProt P00533)
Assay: Inhibition of wild-type EGFR (unknown origin)
Details: not given

| SMILES | IC50 |
| --- | --- |
| NCc1cccc(-c2nc(-c3ccc(F)cc3)c(-c3ccnc4[nH]c(-c5ccccc5)cc34)[nH]2)c1 | < 0.5 nM |
| OCCCc1nc(-c2ccc(F)cc2)c(-c2ccnc3[nH]c(-c4ccccc4)cc23)[nH]1 | < 0.5 nM |

Target: T3, Epidermal growth factor receptor (Homo sapiens, UniProt P00533, L858R)
Assay: Inhibition of recombinant human GST-tagged EGFR L858R mutant cytoplasmic domain expressed in baculovirus expression system preincubated for 20 mins followed by addition of [33P]-ATP measured after 2 hrs by filter-binding method
Details: read-out: IC50

| SMILES | IC50 |
| --- | --- |
| Oc1ccc(-c2nc(-c3ccco3)c(-c3ccnc4[nH]c(-c5ccccc5)cc34)[nH]2)cc1 | 1300 nM |
| C=CC(=O)Nc1cccc(-c2cc3c(-c4[nH]c(-c5ccccc5)nc4-c4ccc(F)cc4)ccnc3[nH]2)c1 | 32.1 nM |
| Oc1cccc(-c2nc(-c3ccc(F)cc3)c(-c3ccnc4[nH]c(-c5ccccc5)cc34)[nH]2)c1 | 23.6 nM |
| C=CC(=O)NCc1cccc(-c2nc(C3CC3)c(-c3ccnc4[nH]c(-c5ccccc5)cc34)[nH]2)c1 | 3920 nM |
| C=CC(=O)Nc1cccc(-c2c[nH]c3nccc(-c4[nH]c(-c5ccccc5)nc4-c4ccc(F)cc4)c23)c1 | 7.8 nM |
| Fc1ccc(-c2[nH]c(-c3ccccc3)nc2-c2ccnc3[nH]c(-c4ccccc4)cc23)cc1 | 102 nM |
| C=CC(=O)Nc1cccc(-c2c[nH]c3nccc(-c4[nH]c(CCCO)nc4C(F)(F)F)c23)c1 | 297 nM |
| Oc1ccc(-c2nc(-c3ccccc3)c(-c3ccnc4[nH]c(-c5ccccc5)cc34)[nH]2)cc1 | 11.2 nM |
| CCC(=O)Nc1cccc(-c2cc3c(-c4[nH]c(-c5ccccc5)nc4-c4ccc(F)cc4)ccnc3[nH]2)c1 | 18.7 nM |
| C=CC(=O)Nc1cccc(-c2c[nH]c3nccc(Cl)c23)c1 | 459 nM |
| Nc1cccc(-c2cc3c(-c4[nH]c(-c5ccccc5)nc4-c4ccc(F)cc4)ccnc3[nH]2)c1 | 15.4 nM |

Target: Epidermal growth factor receptor (Homo sapiens, UniProt P00533, T790M/C797S/L858R)
Assay: (§1) Inhibition of recombinant human N-terminally GST-tagged EGFR L858R/T790M/C797S triple mutant expressed in baculovirus in Sf9 insect cells preincubated for 20 mins followed by addition of [33P]-ATP measured after 2 hrs by filter-binding method
Details: not given

| SMILES | IC50 |
| --- | --- |
| C=CC(=O)Nc1cccc(-c2c[nH]c3nccc(-c4[nH]c(-c5ccccc5)nc4-c4ccc(F)cc4)c23)c1 | Not Active |
| C=CC(=O)Nc1cccc(-c2c[nH]c3nccc(-c4[nH]c(CCCO)nc4C(F)(F)F)c23)c1 | Not Active |

Target: Epidermal growth factor receptor (Homo sapiens, UniProt P00533, C797S/L858R/T790M)
Assay: as §1
Details: not given

| SMILES | IC50 |
| --- | --- |
| Oc1cccc(-c2nc(-c3ccc(F)cc3)c(-c3ccnc4[nH]c(-c5ccccc5)cc34)[nH]2)c1 | 782 nM |
| Fc1ccc(-c2[nH]c(-c3ccccc3)nc2-c2ccnc3[nH]c(-c4ccccc4)cc23)cc1 | 1430 nM |
| NCc1cccc(-c2nc(-c3ccc(F)cc3)c(-c3ccnc4[nH]c(-c5ccccc5)cc34)[nH]2)c1 | 336 nM |
| OCCCc1nc(-c2ccc(F)cc2)c(-c2ccnc3[nH]c(-c4ccccc4)cc23)[nH]1 | 21.1 nM |

Target: Mitogen-activated protein kinase 14 (Homo sapiens, UniProt Q16539)
Sequence (Q16539 whole entry): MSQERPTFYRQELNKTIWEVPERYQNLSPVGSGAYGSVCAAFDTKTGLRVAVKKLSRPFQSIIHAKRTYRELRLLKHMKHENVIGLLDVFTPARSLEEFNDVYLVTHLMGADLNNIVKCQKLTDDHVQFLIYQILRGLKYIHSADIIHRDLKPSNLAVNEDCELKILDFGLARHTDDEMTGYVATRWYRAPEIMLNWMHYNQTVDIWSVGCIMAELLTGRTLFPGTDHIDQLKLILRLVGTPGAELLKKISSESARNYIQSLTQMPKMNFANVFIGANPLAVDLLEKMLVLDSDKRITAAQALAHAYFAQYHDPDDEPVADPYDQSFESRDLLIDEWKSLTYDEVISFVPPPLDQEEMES
Assay: Inhibition of p38alpha MAPK (unknown origin) assessed as decrease in ATF2 phosphorylation at Thr69/71 at 1 uM after 1 hr by ELISA
Details: not given

| SMILES | IC50 |
| --- | --- |
| Oc1ccc(-c2nc(-c3ccco3)c(-c3ccnc4[nH]c(-c5ccccc5)cc34)[nH]2)cc1 | 288 nM |
| Oc1cccc(-c2nc(-c3ccc(F)cc3)c(-c3ccnc4[nH]c(-c5ccccc5)cc34)[nH]2)c1 | 7 nM |
| Oc1ccc(-c2nc(-c3ccccc3)c(-c3ccnc4[nH]c(-c5ccccc5)cc34)[nH]2)cc1 | 1 nM |
| OCCCc1nc(-c2ccc(F)cc2)c(-c2ccnc3[nH]c(-c4ccccc4)cc23)[nH]1 | 2 nM |

Target: T3, Epidermal growth factor receptor
Assay: Inhibition of EGFR L858R mutant (unknown origin)
Details: not given

| SMILES | IC50 |
| --- | --- |
| NCc1cccc(-c2nc(-c3ccc(F)cc3)c(-c3ccnc4[nH]c(-c5ccccc5)cc34)[nH]2)c1 | < 0.5 nM |
| OCCCc1nc(-c2ccc(F)cc2)c(-c2ccnc3[nH]c(-c4ccccc4)cc23)[nH]1 | < 0.5 nM |

Target: T1, Epidermal growth factor receptor
Assay: Inhibition of EGFR L858R/T790M double mutant (unknown origin)
Details: not given

| SMILES | IC50 |
| --- | --- |
| NCc1cccc(-c2nc(-c3ccc(F)cc3)c(-c3ccnc4[nH]c(-c5ccccc5)cc34)[nH]2)c1 | 160 nM |
| OCCCc1nc(-c2ccc(F)cc2)c(-c2ccnc3[nH]c(-c4ccccc4)cc23)[nH]1 | 6.47 nM |

Target: T2, Epidermal growth factor receptor
Assay: Inhibition of recombinant human GST-tagged wild type EGFR ( 668 to 1210 residues) cytoplasmic domain expressed in baculovirus expression system preincubated for 20 mins followed by addition of [33P]-ATP measured after 2 hrs by filter-binding method
Details: read-out: IC50

| SMILES | IC50 |
| --- | --- |
| Oc1ccc(-c2nc(-c3ccco3)c(-c3ccnc4[nH]c(-c5ccccc5)cc34)[nH]2)cc1 | 1790 nM |
| C=CC(=O)Nc1cccc(-c2cc3c(-c4[nH]c(-c5ccccc5)nc4-c4ccc(F)cc4)ccnc3[nH]2)c1 | 43.2 nM |
| Oc1cccc(-c2nc(-c3ccc(F)cc3)c(-c3ccnc4[nH]c(-c5ccccc5)cc34)[nH]2)c1 | 30.4 nM |
| C=CC(=O)NCc1cccc(-c2nc(C3CC3)c(-c3ccnc4[nH]c(-c5ccccc5)cc34)[nH]2)c1 | 4050 nM |
| C=CC(=O)Nc1cccc(-c2c[nH]c3nccc(-c4[nH]c(-c5ccccc5)nc4-c4ccc(F)cc4)c23)c1 | 10.5 nM |
| Fc1ccc(-c2[nH]c(-c3ccccc3)nc2-c2ccnc3[nH]c(-c4ccccc4)cc23)cc1 | 215 nM |
| C=CC(=O)Nc1cccc(-c2c[nH]c3nccc(-c4[nH]c(CCCO)nc4C(F)(F)F)c23)c1 | 680 nM |
| Oc1ccc(-c2nc(-c3ccccc3)c(-c3ccnc4[nH]c(-c5ccccc5)cc34)[nH]2)cc1 | 13.6 nM |
| CCC(=O)Nc1cccc(-c2cc3c(-c4[nH]c(-c5ccccc5)nc4-c4ccc(F)cc4)ccnc3[nH]2)c1 | 27.2 nM |
| C=CC(=O)Nc1cccc(-c2c[nH]c3nccc(Cl)c23)c1 | 525 nM |
| Nc1cccc(-c2cc3c(-c4[nH]c(-c5ccccc5)nc4-c4ccc(F)cc4)ccnc3[nH]2)c1 | 24.1 nM |
